Laboratory results published in patent US9371364B2, “Dual-targeted therapeutic peptide for nasopharyngeal carcinoma, nanoparticles carrying same and uses thereof” (HUAZHONG UNIVERSITY OF SCIENCE AND TECHNOLOGY, priority 2012, dated 2016).

System: nasopharyngeal carcinoma cells (5-8 F, SUNE-1, HONE-1) versus other cancer cells
Test: Octa-FNP fluorescent nano-probe screening of tumor cells (laser confocal imaging, FACS)
Assay type: cell-based
Details: 3 h incubation, FIG. 1
Procedure: In this example, a peptide octavalent fluorescent nanoprobe based on tetramer far-red fluorescent protein was prepared by using a method for constructing a peptide fluorescent probe having a multivalent effect and a nanosized effect invented in the previous research. The probe was used to detect and screen different types of tumor cell lines, in order to screen and identify the tumor-targeting property of the peptide, […] (SEQ ID NO: 3).

LTVSPWYLTVSPWY (a targeted therapeutic peptide for nasopharyngeal carcinoma)
induction of tumor cell death: can effectively induce the death of tumor cells | tumor-targeting property of the peptide: excellent tumor-targeting property to nasopharyngeal carcinoma cells
